Results: paper PMC8361937, “Multifunctional Heterometallic Ir^III−Au^I Probes as Promising Anticancer and Antiangiogenic Agents” (Chemistry (Weinheim an Der Bergstrasse, Germany), 2021)
Read-outs that look alike come from different tables or passages of the source.

How the values were obtained:
[1] = tested on: A549 lung carcinoma cells; assay: MTT-reduction cell viability assay in A549 cells; assay type: cell-based, human; settings: 24 h incubation
Description: In vitro bioactivity of complexes 1 to 4 as well as their dimer precursor was determined by MTT‐reduction assays in A549 lung carcinoma cells (Table 2). […] Cells show an increased sensitivity to the heterobimetallic species bearing a phosphine or a thiocytosine group as gold ancillary ligand, complexes 2 and 4 respectively. The higher balance of the lipo‐ vs hydrophilicity of triphenylphosphine[35] of complex 2, or the bio‐friendly nature of the thiocytosine ancillary ligand[36, 37] in the case of complex 4 might promote an increase of the cell permeabilisation and thus display a greater antiproliferative activity.
Cell culture: A549 (human lung carcinoma) cell line (from ATCC, USA) was routinely cultured in high glucose DMEM medium supplemented with 5 % foetal bovine serum (FBS), L‐glutamine and penicillin/streptomycin (hereafter, complete medium).
Cell viability assays : The MTT‐reduction assay was used to analyse cell metabolic activity as an indicator for cell sensitivity to the complexes in A549 cell line. 10^5 cells/mL were seeded in complete medium in flat‐bottom, 96‐well plates (100 μL/well) and allowed to attach for 24 h prior to addition of compounds. The complexes were dissolved in DMSO and added to cells in concentrations ranging from 0.5 to 50 μM in quadruplicate. Cells were incubated with our compounds for 24 h and then 10 μL of MTT (5 mg mL^−1 in PBS) were added to each well and plates were incubated for 2 h at 37 °C. Finally, culture medium was removed and DMSO (100 μL/well) was added to dissolve the formazan crystals. The optical density was measured at 550 nm using a 96‐well multiscanner autoreader (ELISA) and IC50 was calculated. Each compound was analysed at least in three independent experiments.

ucb‐ECFCs [2] = assay: Annexin V-FITC/PI apoptosis determination in ucb-ECFCs; assay type: cell-based, human; settings: 4 μM, 3 h
Description: (§1) An apoptosis determination test was performed under acute conditions, that is, incubation for a short period of time (3 h) and high concentration of complexes (4 μM; Table 4). A different response was observed regarding the origin of the ECFCs. While the cytotoxic effect on ucb‐ECFCs was similar for all complexes (ca. 20 %), mortality levels of 50 % were achieved on apb‐ECFCs with complexes 1 and 4. On the contrary, complex 2 appeared to be no toxic under these conditions.
(§2) For apoptosis assessment on ECFCs cells exposed to 1, 2 and 4 complexes, an Annexin V apoptosis detection kit (Immunostep), with FITC‐conjugated Annexin V and propidium iodide (PI), was used. Cells were incubated during 3 h with 1, 2 and 4 at 4 μM, gently detached from cell culture surface with Accutase (Corning) and resuspended in D‐PBS, and stained with FITC‐conjugated annexin V and PI according to manufacturer instructions. Data were acquired using a Gallios Flow Cytometer (Beckman Coulter), and Kaluza v2.1 (Beckman Coulter) software was used for data analysis.

ucb‐ECFCs [3] = assay: Crystal violet cell viability assay in ucb-ECFCs; assay type: cell-based, human; settings: 24 h
Description: (§3) Effects on the cell viability related to compounds 1, 2 and 4 were analysed by crystal violet assays in ucb‐ECFCs and apb‐ECFCs. Both kinds of cells show a dose‐dependent sensitivity to the complexes after 24 h of treatment (Figure S30). IC50 values were on the range 1.1‐3.6 μM, ucb‐ECFCs being more sensitive than apb‐ECFCs to the compounds (Table 3), which could be associated to the increased proliferative activity of the ucb‐ECFCs.
(§4) Endothelial colony forming cells (ECFC) were isolated from umbilical cord blood from healthy births but unsuitable for transplantation (ucb‐ECFCs), or from peripheral blood of adult healthy donors (apb‐ECFCs) following the method described by Ingram et al.[57] with minor modifications. […]
(§5) For ECFCs cell viability determination, crystal violet assays were performed. […] Estimation of cell density was achieved by solubilisation of cell‐retained crystal violet with 10 % acetic acid solution and absorbance measurement at 540 nm in a Synergy HD system (BioTek). Data were analysed with SAIC50 v1.5.10 (http://gauss.inf.um.es:8080/IC50/) using the four‐parameter logistic function to calculate IC50 values according to Sebaugh et al.[58]

apb‐ECFCs [4] = assay: Annexin V-FITC/PI apoptosis determination in apb-ECFCs; assay type: cell-based, human; settings: 4 μM, 3 h; for Early apoptotic / Late apoptotic / Necrotic / Viable: apb ECFCs; for Mortality level: apb‐ECFCs
Description: as §1, §2

apb‐ECFCs [5] = assay: Crystal violet cell viability assay in apb-ECFCs; assay type: cell-based, human; settings: 24 h
Description: as §3, §4, §5

ECFCs = assay: In vitro tube formation (angiogenic activity) assay; assay type: cell-based, human; settings: 0.25 μM, 20 h, ucb- and apb-ECFCs
Description: In vitro tube formation assay is a highly informative test to probe angiogenic ability of endothelial cells.[55] This observation could be the basis to consider their potential antiangiogenic activity and develop complementary assays in more physiologically relevant models. […] The mechanisms involved in this effect deserve further research.
Tube formation assay: Endothelial cells (10 000 cell/well) suspended in cell culture medium containing each compound at 0.25 μM or vehicle (DMSO) were seeded over Cultrex® Reduced Growth Factor Basement Membrane Matrix (Trevigen) gelled (37 °C for 30 min) in wells of μ‐Slide Angiogenesis coverslips (ibidi). DMSO concentration in the medium was below 0.5 %. Cells were then incubated for a 20 h period with the treatments. Images were acquired with a Moticam 3 digital camera system (Motic) through a CK40 inverted microscope (Olympus) using a 10x objective.

[6] = tested on: A549 lung carcinoma cells; settings: cited from earlier work
A549 cells [7] = assay: Cell death mechanism by Annexin V-DY634/7-AAD flow cytometry with or without Z-VAD-fmk; assay type: cell-based, human; settings: 24 and 48 h, 30 μM Z‐VAD‐fmk
Description: For flow cytometry analysis, phosphatidylserine exposure on cell surface as an “early apoptosis” marker and cell membrane damage as necrosis indicator were evaluated with Annexin V‐DY634 (apoptosis) and the DNA‐labelling dye 7‐AAD (necrosis) staining. […] As shown in Figures 4 and S22 (top graphs), cells are distributed in three populations. Annexin V‐DY634‐only positive cells are indicative of an early apoptotic process, a 7‐AAD‐only labelled cell population represents exploded cells as a typical endpoint of necrotic cell death, and the doubly stained population implies that cells started being apoptotic and then eventually burst, a phenomenon known as “late apoptosis”. It is remarkable that late apoptosis state was easily reached at higher concentrations for both complexes. […] As both compounds activate apoptotic pathway, we wanted to unveil whether caspases were implicated in the cell death process by using the pan‐caspase inhibitor Z‐VAD‐fmk.
Cytotoxicity assays: Apoptotic and necrotic cell death was determined by measuring phosphatidylserine exposure on cell surface and cell membrane permeabilisation, respectively, in A549 cells. […] Cell death was analysed using CellQuest Pro (BD Biosciences), FlowJo 7.6.1 (Becton Dickinson (BD), USA) and GraphPad Prism 5 (GraphPad Software, USA) software.

A549 cells [8] = assay: ROS production measurement (CellROX, flow cytometry); assay type: cell-based, human; settings: 24 h, up to 80 % of IC50
Description: The generation of ROS was analysed by flow cytometry using a fluorogenic CellROX^TM assay kit. Complexes 1 and 4 were selected for the experiment to discriminate between the effects that might drive the presence of the gold fragment. […] Such increment might be in fact associated with the presence of the gold fragment as many reported gold species have shown to induce oxidative stress.[43] Therefore, this experiment seems to indicate that the introduction of the gold fragment activates to a higher extent the mechanisms of ROS generation in A549 cells.
ROS production measurement: 5×10^5 A549 cells/well were seeded in complete medium in flat‐bottom, 6‐well plates (3 mL/well) and allowed to attach for 24 h prior to addition of the compound. Complexes 1 and 4 were dissolved in DMSO and added to cells up to concentration of 80 % (IC50) in duplicate. Cells were incubated with the complexes for 24 h and subsequently, they were trypsinised and the CellROX®Green Flow cytometry assay kit (C10492) was used to evaluate the generation of ROS in a Gallios Flow Cytometer (Beckman Coulter) using Kaluza v2.1 software for data analysis.

A549 cells [9] = assay: Mitochondrial transmembrane potential analysis (TMRE, flow cytometry); assay type: cell-based, human; settings: 48 h
Text: TMRE is a positively charged dye that accumulates in cells with active mitochondria as consequence of their net internal negative charge but several cell insults, including chemotherapeutic agents, lead to mitochondrial depolarisation and thus TMRE incorporation fails. A shift is seen in the pattern staining for complexes 1 (Figure S29) and 4 (Figure 13) in comparison with untreated cells and this overlaps with that seen when treating cells with S63845 (positive control), a selective inhibitor of the Mcl‐1 antiapoptotic protein involved in the regulation of the mitochondrial apoptotic pathway.
Mitochondrial transmembrane potential analysis: Integrity of the mitochondrial outer membrane was evaluated by measuring disruption of mitochondrial transmembrane potential. For this assay, 10^5 A549 cells/mL were seeded in complete medium in flat‐bottom, 12‐well plates (1 mL/well) and allowed to attach for 24 h prior to addition of compounds. Cells were treated for 48 h with compound 4 at 150 μM in duplicate. Then, they were trypsinised, resuspended in 500 μl of a mixture of complete medium and 60 nM of the tetramethilrhodamine ethyl ester (TMRE) probe and incubated at 37 °C in the dark for 20 min. Finally, a total of 10 000 cells were acquired on a FACSCalibur flow cytometer (BD Biosciences) and data were analysed using the aforementioned software.

Row | Compound | IC50 [1] [nM] | Early apoptotic (ucb‐ECFCs [2]) [%] | Late apoptotic (ucb‐ECFCs [2]) [%] | Necrotic (ucb‐ECFCs [2]) [%] | Viable (ucb‐ECFCs [2]) [%] | IC50 (ucb‐ECFCs [3]) [nM] | Early apoptotic (apb‐ECFCs [4]) [%] | Late apoptotic (apb‐ECFCs [4]) [%] | Necrotic (apb‐ECFCs [4]) [%] | Viable (apb‐ECFCs [4]) [%] | Mortality level (apb‐ECFCs [4]) | IC50 (apb‐ECFCs [5]) [nM] | Tube formation activity of ECFCs on Cultrex matrix (ECFCs) | IC50 [6] [nM] | Cell death mechanism (effect of pan-caspase inhibitor Z-VAD-fmk) (A549 cells [7]) | ROS generation (A549 cells [8]) | Disruption of mitochondrial transmembrane potential (TMRE staining) (A549 cells [9])
1 | [Cl][AuH][CH]1[P+](c2ccccc2)(c2ccccc2)[Ir-3]23([c]4ccccc4-c4cccc[n+]42)([c]2ccccc2-c2cccc[n+]23)[P+]1(c1ccccc1)c1ccccc1 [Complex 3] | 1700 ± 80 | – | – | – | – | – | – | – | – | – | – | – | – | – | – | – | –
2 | c1cc[c]2c(c1)-c1cccc[n+]1[Ir-3]213([Cl+][Ir-3]24([Cl+]1)([c]1ccccc1-c1cccc[n+]12)[c]1ccccc1-c1cccc[n+]14)[c]1ccccc1-c1cccc[n+]13 [dimer, [Ir(ppy)2(μ‐Cl)]2] | > 50000 | – | – | – | – | – | – | – | – | – | – | – | – | – | – | – | –
3 | F[P-](F)(F)(F)(F)F.c1ccc([P+]([Au-][CH]2[P+](c3ccccc3)(c3ccccc3)[Ir-3]34([c]5ccccc5-c5cccc[n+]53)([c]3ccccc3-c3cccc[n+]34)[P+]2(c2ccccc2)c2ccccc2)(c2ccccc2)c2ccccc2)cc1 [Complex 2] | 800 ± 60 | 0.93 | 17.24 | 5.01 | 76.82 | 2630 | 9.22 | 8.40 | 0.14 | 82.25 | no toxic | 3520 | reduced although not completely impaired | – | – | – | –
4 | N.N.[Cl][Pt][Cl] [cisplatin, reference compound] | – | – | – | – | – | – | – | – | – | – | – | – | – | 20800 ± 2100 | – | – | –
5 | F[P-](F)(F)(F)(F)F.c1ccc([P+]2(c3ccccc3)C[P+](c3ccccc3)(c3ccccc3)[Ir-3]234([c]2ccccc2-c2cccc[n+]23)[c]2ccccc2-c2cccc[n+]24)cc1 [Complex 1, [Ir(ppy)2(dppm)]PF6] | 1000 ± 80 | 1.12 | 21.81 | 3.96 | 73.10 | 1160 | 8.30 | 51.93 | 9.02 | 30.75 | 50% | 2710 | reduced although not completely impaired | – | caspase‐independent cell death mechanism | dose‐dependent increase in the generation of ROS | complete disruption of mitochondrial transmembrane potential
